Test [1] concerns the target ligand binding domain of human FXR (Homo sapiens (Human), UniProt Q96RI1). Nature of the test: FXR ligand binding assay (LanthaScreen FRET). Particulars: for % Efficacy: extent of activation relative to GW4064; for Emax: read-out: % Efficacy.
Protocol: The affinity of FXR ligands for the ligand binding domain of FXR was determined using a commercially available human FXR ligand binding assay (LanthaScreen, Thermofisher Cat #PV4833). […] Binding of FXR ligands to the FXR ligand binding domain promotes binding of the fluorescein-labelled SRC2-2 peptide. This causes a FRET signal between the terbium-labelled anti-GST antibody and the fluorescein-labelled SRC peptide which are both bound to the FXR ligand binding domain.
Test compounds are dissolved in DMSO and a 3-fold serial dilution series is generated, then further diluted into assay buffer. The compounds are mixed with 5 nM GST-tagged FXR ligand binding domain, 5 nM Tb-labelled anti-GST antibody and 500 nM fluorescein-labelled SRC2-2 peptide in a pH 7.4 buffer. The reaction is incubated at room temperature for 1 hour, then the FRET signal is measured as the ratio of the 520 nm/495 nm emission following excitation at 340 nm. The change in FRET signal is plotted against the test article concentration and fit to a 3-parameter logistical equation.
For test [2], the target named is human Famesoid X receptor ligand-binding domain/Gal4 DNA binding domain chimera (Homo sapiens (Human), UniProt Q96RI1). Nature of the test: Cellular FXR beta-lactamase reporter assay (FXR-UAS-bla HEK 293T). It is filed as cell-based. Particulars: for Emax: HEK-293T, read-out: % Efficacy; for EC50: read-out: FXR pEC50 (converted); for % Efficacy: extent of activation relative to GW4064. The method, then: FXR activation was measured using a cell line and procedure obtained from Life Technologies (Cat #K1691). FXR-UAS-&/a HEK 293T cells contain a human Famesoid X receptor ligand-binding domain/Gal4 DNA binding domain chimera stably integrated into the CellSensor® UAS-bla HEK293T cell line. The CellSensor® UAS-bla HEK293T contains a beta-lactamase reporter gene under control of a UAS response element stably integrated into HEK 293T cells. Activation of FXR by bound ligands results in transcriptional activation of the beta-lactamase reporter gene, which is detected via assay of beta-lactamase activity.
Chain of human Famesoid X receptor ligand-binding domain/Gal4 DNA binding domain chimera (Q96RI1 262-486, stated change not applied): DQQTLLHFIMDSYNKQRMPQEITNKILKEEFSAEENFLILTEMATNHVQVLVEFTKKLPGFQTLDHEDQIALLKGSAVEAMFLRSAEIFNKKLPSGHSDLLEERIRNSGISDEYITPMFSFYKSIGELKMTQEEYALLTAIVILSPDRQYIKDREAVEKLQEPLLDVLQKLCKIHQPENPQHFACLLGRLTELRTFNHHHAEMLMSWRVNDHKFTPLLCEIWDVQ
Cells are harvested and diluted into assay medium containing phenol red-free DMEM supplemented with 2% Charcoal-stripped FBS, pyruvate, non-essential amino acids. Cells are then transferred to a 384 well assay plate. Test compounds are dissolved in DMSO and a 3-fold serial dilution series is generated, then further diluted into assay medium. Compounds in assay medium are added to cells in the 384 well plate and allowed to incubate 16 h at 37 C in the presence of 5% CO2.
A FRET-based […] (CCF4) is loaded into cells as its acetomethoxy ester. Intracellular esterases liberate free CCF4, a cephalosporin core linking 7-hydroxycoumarin to fluorescein. In the presence of beta-lactamase activity produced in the presence of FXR agonists, cleavage of CCF4 spatially separates the two dyes and disrupts FRET, so that exciting the coumarin at 409 nm now produces a blue fluorescence signal at 447 nm. The change in FRET signal is plotted against the test compound concentration and fit to a 3-parameter logistical equation.
In general terms: A reporter such as luciferase makes a cellular process visible.

For test [3], the system named is C57BL/6 male mice fed a Western diet. Nature of the test: Western diet study. It is filed as in vivo, C57BL/6 mice. As for the experimental part:
Six-week-old C57BL/6 male mice were fed a Western diet (WD) (62% fat/0.2% cholesterol). […] An additional control group (lean) was fed a standard rodent chow throughout the study. Body weight measurements and serum samples (tail bleed) were taken weekly. After 6 weeks of treatment, all animals were sacrificed and hepatosteatosis-related endpoints and other liver markers were measured.
Total RNA from mouse tissues was isolated and used for library preparation. Library samples were multiplexed ahead of mRNA sequencing.

Chain of ligand binding domain of human FXR (Q96RI1 262-486): as the sequence (Q96RI1 262-486, stated change not applied) above

Regarding “2-[(1R,3S,5S)-3-(5-cyclopropyl-3-{4-methoxybicyclo[2.2.2]octan-1-yl}-1,2-oxazole-4-carbonyloxy)-8-azabicyclo[3.2.1]octan-8-yl]-4-(trifluoromethoxy)-1,3-benzothiazole-6-carboxylic acid [Compound I-58]”, the “% Efficacy” value in test [1] amounted to 22%. The “FXR pEC50” value is recorded as above 4.4 in test [1] (pEC50 = −log EC50, FRET signal, SRC2-2 peptide) and above 4.5 in test [2] (pEC50 = −log EC50, 16 h incubation).
Turning to `CC(C)(C)c1onc(-c2c(Cl)cccc2Cl)c1C(=O)OC1C[C@H]2CC[C@@H](C1)N2c1nc2c(F)cc(C(=O)O)cc2s1` (single isomer, unassigned) [Compound I-25], the results for the Emax in test [1] and in test [2] were 56% and 100%, respectively. Moreover, the EC50 in test [2] was 0.0251 µM.
On the same counts, the results for `CC1(c2onc(-c3c(Cl)cccc3Cl)c2C(=O)OC2C[C@H]3CC[C@@H](C2)N3c2nc3c(F)cc(C(=O)O)cc3s2)CC1` (single isomer, unassigned) [Compound I-26] are 75%, 106% and 0.0316 µM.
As to `O=C(O)c1cc(F)c2nc(N3[C@@H]4CC[C@H]3C[C@@H](OC(=O)c3c(-c5ccccc5)noc3C3CC3)C4)sc2c1` [Compound I-13, 2-[(1R,3R,5S)-3-(5-Cyclopropyl-3-phenyl-1,2-oxazole-4-carbonyloxy)-8-azabicyclo[3.2.1]octan-8-yl]-4-fluoro-1,3-benzothiazole-6-carboxylic acid], the Emax in test [1] amounted to 40%; in test [2] it was 93%. Besides, in test [2], the EC50 is 1 µM.
As for `O=C(O)c1cc(F)c2nc(N3[C@@H]4CC[C@H]3C[C@@H](OC(=O)c3c(-c5ccccc5OC(F)(F)F)noc3C3CC3)C4)sc2c1` [Compound I-14, 2-[(1R,3R,5S)-3-{5-cyclopropyl-3-[2-(trifluoromethoxy)phenyl]-1,2-oxazole-4-carbonyloxy}-8-azabicyclo[3.2.1]octan-8-yl]-4-fluoro-1,3-benzothiazole-6-carboxylic acid], in test [1], the Emax is 147%. Moreover, in test [2], the Emax was 116% and the EC50 is 0.00794 µM.
On the same counts, the results for `O=C(O)c1cc(F)c2nc(N3[C@@H]4CC[C@H]3C[C@@H](OC(=O)c3c(-c5c(Cl)cccc5OC(F)F)noc3C3CC3)C4)sc2c1` [Compound I-15, 2-[(1R,3R,5S)-3-{3-[2-chloro-6-(difluoromethoxy)phenyl]-5-cyclopropyl-1,2-oxazole-4-carbonyloxy}-8-azabicyclo[3.2.1]octan-8-yl]-4-fluoro-1,3-benzothiazole-6-carboxylic acid] are 71%, 108% and 0.0398 µM.
`O=C(O)c1cc(F)c2nc(N3[C@@H]4CC[C@H]3C[C@@H](OC(=O)c3c(-c5c(F)cccc5F)noc3C3CC3)C4)sc2c1` [Compound I-16, 2-[(1R,3R,5S)-3-[5-cyclopropyl-3-(2,6-difluorophenyl)-1,2-oxazole-4-carbonyloxy]-8-azabicyclo[3.2.1]octan-8-yl]-4-fluoro-1,3-benzothiazole-6-carboxylic acid]: in test [1], the Emax worked out at 47%. Moreover, in test [2], the Emax was determined as 110% and the EC50 was 0.2 µM.
The like results for `O=C(O)c1cc(F)c2nc(N3[C@@H]4CC[C@H]3C[C@@H](OC(=O)c3c(C5CCC6(CC5)CC6)noc3C3CC3)C4)sc2c1` [Compound I-19, 2-[(1R,3R,5S)-3-(5-cyclopropyl-3-{spiro[2.5]octan-6-yl}-1,2-oxazole-4-carbonyloxy)-8-azabicyclo[3.2.1]octan-8-yl]-4-fluoro-1,3-benzothiazole-6-carboxylic acid] were, in that order, 55%, 79% and 0.158 µM.
On to `O=C(O)c1cc(F)c2nc(N3[C@@H]4CC[C@H]3C[C@@H](OC(=O)c3c(C56CCC(CC5)CC6)noc3C3CC3)C4)sc2c1` [Compound I-20, 2-[(1R,3R,5S)-3-(3-{Bicyclo[2.2.2]octan-1-yl}-5-cyclopropyl-1,2-oxazole-4-carbonyloxy)-8-azabicyclo[3.2.1]octan-8-yl]-4-fluoro-1,3-benzothiazole-6-carboxylic acid], for which, in test [2], the “% Efficacy” value was 22%.
For `Cc1onc(-c2c(Cl)cccc2Cl)c1C(=O)O[C@H]1C[C@H]2CC[C@@H](C1)N2c1nc2c(F)cc(C(=O)O)cc2s1` [Compound I-23, 2-[(1R,3S,5S)-3-[3-(2,6-dichlorophenyl)-5-methyl-1,2-oxazole-4-carbonyloxy]-8-azabicyclo[3.2.1]octan-8-yl]-4-fluoro-1,3-benzothiazole-6-carboxylic acid], the Emax in test [1] came to 37%. In test [2], the Emax turned out to be 100% and the EC50 is 0.158 µM.
Turning to `O=C(O)c1cc(F)c2nc(N3[C@@H]4CC[C@H]3C[C@@H](OC(=O)c3c(-c5c(Cl)cccc5Cl)noc3C3CCC3)C4)sc2c1` [Compound I-24, 2-[(1R,3R,5S)-3-[5-cyclobutyl-3-(2,6-dichlorophenyl)-1,2-oxazole-4-carbonyloxy]-8-azabicyclo[3.2.1]octan-8-yl]-4-fluoro-1,3-benzothiazole-6-carboxylic acid], the Emax in test [1] stood at 64%. In test [2], the Emax amounted to 98% and the EC50 is 0.0316 µM.
For the molecule `O=C(O)c1cc(F)c2nc(N3[C@@H]4CC[C@H]3C[C@@H](OC(=O)c3c(-c5c(Cl)cccc5Cl)noc3C3(F)CC3)C4)sc2c1` [Compound I-27, 2-[(1R,3R,5S)-3-[3-(2,6-dichlorophenyl)-5-(1-fluorocyclopropyl)-1,2-oxazole-4-carbonyloxy]-8-azabicyclo[3.2.1]octan-8-yl]-4-fluoro-1,3-benzothiazole-6-carboxylic acid], the Emax in test [1] worked out at 107%. In addition, in test [2], the Emax was 108% and the EC50 was 0.00398 µM.
With `Cn1c(N2[C@@H]3CC[C@H]2C[C@@H](OC(=O)c2c(-c4c(Cl)cccc4Cl)noc2C2CC2)C3)nc2c(F)cc(C(=O)O)cc21` [Compound I-31, 2-[(1R,3R,5S)-3-[5-cyclopropyl-3-(2,6-dichlorophenyl)-1,2-oxazole-4-carbonyloxy]-8-azabicyclo[3.2.1]octan-8-yl]-4-fluoro-1-methyl-1H-1,3-benzodiazole-6-carboxylic acid], in test [2], the Emax stood at 100% and the EC50 is 0.398 µM.
Take `O=C(Cc1c(-c2c(Cl)cccc2Cl)noc1C1CC1)O[C@H]1C[C@H]2CC[C@@H](C1)N2c1nc2c(F)cc(C(=O)O)cc2s1` [Compound I-32, 2-[(1R,3R,5S)-3-({2-[5-cyclopropyl-3-(2,6-dichlorophenyl)-1,2-oxazol-4-yl]acetyl}oxy)-8-azabicyclo[3.2.1]octan-8-yl]-4-fluoro-1,3-benzothiazole-6-carboxylic acid]: the Emax in test [1] came out at 34%. In test [2], the Emax was 86% and the EC50 was 0.398 µM.
With `CCCS(=O)(=O)NC(=O)c1ccc(N2[C@@H]3CC[C@H]2C[C@@H](OC(=O)c2c(-c4c(Cl)cccc4Cl)noc2C2CC2)C3)cc1` [Compound I-45, (1R,3R,5S)-8-{4-[(propane-1-sulfonyl)carbamoyl]phenyl}-8-azabicyclo[3.2.1]octan-3-yl 5-cyclopropyl-3-(2,6-dichlorophenyl)-1,2-oxazole-4-carboxylate], the “% Efficacy” value was 130% in test [1] and 128% in test [2].
On to `CCCCCS(=O)(=O)NC(=O)c1ccc(N2[C@@H]3CC[C@H]2C[C@@H](OC(=O)c2c(-c4c(Cl)cccc4Cl)noc2C2CC2)C3)cc1` [Compound I-46, (1R,3R,5S)-8-{4-[(pentane-1-sulfonyl)carbamoyl]phenyl}-8-azabicyclo[3.2.1]octan-3-yl 5-cyclopropyl-3-(2,6-dichlorophenyl)-1,2-oxazole-4-carboxylate], for which the “% Efficacy” value in test [1] amounted to 146%; in test [2], 110%.
On to `O=C(NS(=O)(=O)C1CC1)c1ccc(N2[C@@H]3CC[C@H]2C[C@H](OC(=O)c2c(-c4c(Cl)cccc4Cl)noc2C2CC2)C3)cc1` [Compound I-48, (1R,3S,5S)-8-{4-[(cyclopropanesulfonyl)carbamoyl]phenyl}-8-azabicyclo[3.2.1]octan-3-yl 5-cyclopropyl-3-(2,6-dichlorophenyl)-1,2-oxazole-4-carboxylate], for which, in test [2], the “% Efficacy” value stood at 130%.
For `O=C(O)c1ccc([C@H]2C[C@@H]2c2ccc(OCc3c(-c4c(Cl)cccc4Cl)noc3C3CC3)cc2Cl)cc1` [Px-102], in test [3], the “liver Cyp7a1 gene expression” value is reported as “downregulated”. In addition, in test [3] (6 weeks of treatment), the “hepatosteatosis related endpoints (including liver triglycerides and liver cholesterol)” value was “normalized”; the “macrovesicular steatosis (score)” value was “reduced”; the “serum FGF15 concentration” value is reported as “further increased”; the serum cholesterol result is on record as “reduced”. Besides, the “Activity, % (n)” value in test [1] (Human FXR Binding (FRET), relative to GW4064) is reported as 90 ± 15 (3) %.

For the origin of these results see patent US11718619B2, “Isoxazolyl-carbonyloxy azabicyclo[3.2.1]octanyl compounds as FXR activators” (ARDELYX, INC., priority 2016, dated 2023).
